Measurements as given in US9555050B2 (BIOGEN MA INC., priority 2012, dated 2017).

target: T1, Human ATX protein (Homo sapiens, UniProt Q13822); experiment: ATX biochemical FRET assay with FS-3 substrate; details: FS-3 substrate 2 μM, ATX 1.0 μg/mL, 30 min preincubation, 2 hours at room temperature
T1 construct: made in house
Description: ATX (Autotaxin) is a 125 KDa glycoprotein with lysophospholipase D (LPLD) activity that generates the bioactive lipid lysophosphatidic acid (LPA) from lysophosphatidylcholine (LPC). The ATX biochemical assay utilizes a FRET (fluorescence resonance energy transfer) technology platform. The fluorescence signal of FRET substrate FS-3 is quenched due to intra-molecular FRET of a fluorophore to a non-fluorescing quencher (Ferguson, C. G., et al., Org Lett. 2006 May 11; 8(10): 2023-2026, which is incorporated by reference in its entirety). ATX catalyzes the hydrolysis of the substrate which separates the dabsyl quencher from the fluorescein reporter, which becomes fluorescent. The reaction is monitored by a SpectraMax M5 (Molecular Devices, Sunnyvale, Calif.) with at excitation wavelength 485 nm and emission wavelength […].
Fatty acid free-BSA (Sigma A8806): 10 mg/mL in H2O, stored at 4° C.
2×ATX assay buffer: 100 mM Tris, 280 mM NaCl, 10 mM KCl, 2 mM CaCl2, 2 mM MgCl2, pH 7.4.
Human ATX protein: expressed and purified in house. Stored at −80° C.
Substrate FS-3 (Echelon, L-2000): 100 μg in 77.74.L H2O (1 mM stock), stored at −20° C.
384-well flat bottom plates—Corning #3575.
Compound dilution—All compounds were provided at 10 mM in 100% DMSO. In the first well, 2 μL of 10 mM compound was added to 78 μL of DMSO (1:40 dilution). In subsequent wells 3-fold dilution (total 10 dilutions) were performed.
1×ATX assay buffer was made up with a final concentration of 1 mg/mL fatty acid free-BSA using 2×ATX assay buffer, 10 mg/ml fatty acid free-BSA and ddH2O.
ATX protein was diluted with 1×ATX assay buffer to a concentration of 1.32 μg/mL (1.32×). 38 μL was added per well to the assay plate. The final concentration of ATX in the reaction as 1.0 μg/mL.
2 μL per well of compounds was transferred to provide the desired concentration. The plate was centrifuged, then incubated at room temperature for 30 minutes on the shaker.
FS-3 was diluted with 1×ATX assay buffer to a concentration of FS-3 of 10 μM (5×). Then, 10 μL was added per well to the assay plate. The final concentration of FS-3 in the reaction was 2 μM. The plate was centrifuged. The plate was kept shaking at room temperature for 2 hours. Because FS-3 substrate is light sensitive, plates were kept covered and protected from light.
Fluorescence was measured using SpectraMax M5 (excitation at 485 nm/emission at 538 nm, top read).

`C[C@H]1CC[C@@H](Oc2ccc3cc(C(N4CCC(C(=O)O)CC4)C(F)(F)F)ccc3c2C(F)(F)F)CC1` (stereo partly drawn) [Example 12, 1-(2,2,2-Trifluoro-1-(6-((cis-4-methylcyclohexyl)oxy)-5-(trifluoromethyl)naphthalen-2-yl)ethyl)piperidine-4-carboxylic acid] and `C[C@@H](c1ccc2c(C(F)F)c(O[C@H]3CC[C@@H](C)CC3)ccc2c1)N1CCC(C(=O)O)CC1` [Example 61, 1-((S)-1-(6-((cis-4-Methylcyclohexyl)oxy)-5-(difluoromethyl)naphthalen-2-yl)ethyl)piperidine-4-carboxylic acid] cannot be ordered by IC50: no more than 500 nM for the first, no more than 250 nM for the second.

`CC(C)CC(NC1CC(C(=O)O)C1(C)C)c1ccc2c(C(F)(F)F)c(O[C@H]3CC[C@@H](C)CC3)ccc2c1` (relative stereo) [Example 90, 2,2-dimethyl-3-(1-(6-((cis)-4-methylcyclohexyloxy)-5-(trifluoromethyl)naphthalen-2-yl)-3-methylbutylamino)cyclobutanecarboxylic acid] and `CC(NC1CC(C(=O)O)C1(C)C)c1ccc2c(C(F)(F)F)c(O[C@H]3CC[C@@H](C(F)(F)F)CC3)ccc2c1` (stereo partly drawn) [Example 37, 2,2-dimethyl-3-(1-(5-(trifluoromethyl)-6-((cis)-4-(trifluoromethyl)cyclohexyloxy)naphthalen-2-yl)ethylamino)cyclobutanecarboxylic acid] cannot be ordered by IC50: no more than 500 nM for the first, no more than 100 nM for the second.

`O=C(O)[C@H]1CC[C@@H](NCc2ccc3c(C(F)(F)F)c(O[C@H]4CC[C@@H](C(F)(F)F)CC4)ccc3c2)CC1` [Example 70, cis-4-(((5-(trifluoromethyl)-6-((cis)-4-(trifluoromethyl)cyclohexyloxy)naphthalene-2-yl)methyl)amino)cyclohexane-1-carboxylic acid] and `O=C(O)C1CCC(NCc2ccc3c(C(F)(F)F)c(O[C@H]4CC[C@@H](C(F)(F)F)CC4)ccc3c2)C1` (relative stereo) [Example 66, 1-((5-(trifluoromethyl)-6-((cis-4-(trifluoromethyl)cyclohexyl)oxy)-naphthalen-2-yl)methyl)aminocyclopentane-3-carboxylic acid] cannot be ordered by IC50: no more than 500 nM for the first, no more than 500 nM for the second.

`O=C(O)CC1CN(Cc2ccc3c(C(F)F)c(O[C@H]4CC[C@@H](C(F)(F)F)CC4)ccc3c2)CCO1` (relative stereo) [Example 32, 2-(4-((5-(difluoromethyl)-6-((cis)-4-(trifluoromethyl)cyclohexyloxy)naphthalen-2-yl)methyl)morpholin-2-yl)acetic acid] and `O=C(O)[C@@H]1CCCN(Cc2ccc3c(C(F)(F)F)c(O[C@H]4CC[C@@H](C(F)(F)F)CC4)ccc3c2)C1` [Example 24, (R)-1-((5-(trifluoromethyl)-6-((cis)-4-(trifluoromethyl)cyclohexyloxy)naphthalen-2-yl)methyl)piperidine-3-carboxylic acid] cannot be ordered by IC50: no more than 500 nM for the first, no more than 500 nM for the second.

`CC1(C)C(NCc2ccc3c(C(F)(F)F)c(O[C@H]4CC[C@@H](C(F)(F)F)CC4)ccc3c2)CC1C(=O)O` (stereo partly drawn) [Example 1, 2,2-dimethyl-3-(((5-(trifluoromethyl)-6-((cis-4-(trifluoromethyl)cyclo-hexyl)oxy)naphthalen-2-yl)methyl)amino)cyclobutanecarboxylic acid] and `CC(NC1CC(C(=O)O)C1(C)C)c1ccc2c(C(F)(F)F)c(O[C@H]3CC[C@@H](C(F)(F)F)CC3)ccc2n1` (stereo partly drawn) [Example 15, 2,2-dimethyl-3-(((1-(5-(trifluoromethyl)-6-(cis-4-(trifluoromethyl)cyclo-hexyl)oxy)quinolin-2-yl)ethyl)amino)cyclobutanecarboxylic acid] cannot be ordered by IC50: no more than 500 nM for the first, no more than 250 nM for the second.

`O=P(O)(O)CCCNCc1ccc2c(C(F)(F)F)c(O[C@H]3CC[C@@H](C(F)(F)F)CC3)ccc2c1` [Example 63, 3-(((5-(trifluoromethyl)-6-(cis-4-(trifluoromethyl)cyclohexyloxy)naphthalene-2-yl)methyl)amino)propylphosphonic acid] and `O=P(O)(O)Cc1ccc(NCc2ccc3c(C(F)(F)F)c(O[C@H]4CC[C@@H](C(F)(F)F)CC4)ccc3c2)cc1` [Example 68, (4-((5-(trifluoromethyl)-6-(cis-4-(trifluoromethyl)cyclohexyloxy)naphthalene-2-yl)methyl)aminophenyl)methylphosphonic acid] cannot be ordered by IC50: no more than 100 nM for the first, no more than 100 nM for the second.

`CC(c1ccc2c(C(F)F)c(O[C@H]3CC[C@@H](C)CC3)ccc2c1)N1CCC[C@@H](CC(=O)O)C1` (stereo partly drawn) [Example 54, 2-((3S)-1-(1-(6-((cis-4-Methylcyclohexyl)oxy)-5-(difluoromethyl)naphthalen-2-yl)ethyl)piperidin-3-yl)acetic acid] and `CC(c1ccc2c(C(F)F)c(O[C@H]3CC[C@@H](C)CC3)ccc2c1)N1CCC[C@H](CC(=O)O)C1` (stereo partly drawn) [Example 53, 2-((3R)-1-(1-(6-((cis-4-Methylcyclohexyl)oxy)-5-(difluoromethyl)naphthalen-2-yl)ethyl)piperidin-3-yl)acetic acid] cannot be ordered by IC50: no more than 100 nM for the first, no more than 100 nM for the second.

`CC[C@H](c1ccc2c(C(F)(F)F)c(O[C@H]3CC[C@@H](C)CC3)ccc2c1)N1CCC[C@H](CC(=O)O)C1` [Example 60, 2-((3R)-1-((R)-1-(6-((cis-4-Methylcyclohexyl)oxy)-5-(trifluoromethyl)naphthalen-2-yl)propyl)piperidin-3-yl)acetic acid] and `C[C@@H](c1ccc2c(C(F)(F)F)c(O[C@H]3CC[C@@H](C)CC3)ccc2c1)N1CCC[C@H](CC(=O)O)C1` [Example 95, 2-((3R)-1-((S)-1-(6-((cis-4-Methylcyclohexyl)oxy)-5-(trifluoromethyl)naphthalen-2-yl)ethyl)piperidin-3-yl)acetic acid] cannot be ordered by IC50: no more than 100 nM for the first, no more than 100 nM for the second.

`CCC(c1ccc2c(C(F)F)c(O[C@H]3CC[C@@H](C)CC3)ccc2c1)N1CCC(C(=O)O)CC1` (relative stereo) [Example 58, 1-(1-(6-((cis-4-Methylcyclohexyl)oxy)-5-(difluoromethyl)naphthalen-2-yl)propyl)piperidine-4-carboxylic acid] and `O=C(O)C1CCCN(Cc2ccc3c(C(F)(F)F)c(O[C@H]4CC[C@@H](C(F)(F)F)CC4)ccc3c2)CC1` (relative stereo) [Example 76, 1-((5-(trifluoromethyl)-6-((cis-4-(trifluoromethyl)cyclohexyl)oxy)-naphthalen-2-yl)methyl)azepane-4-carboxylic acid] cannot be ordered by IC50: no more than 100 nM for the first, no more than 500 nM for the second.

`CC(NCc1ccc2c(C(F)(F)F)c(O[C@H]3CC[C@@H](C(F)(F)F)CC3)ccc2c1)C1CCC(C(=O)O)CC1` (relative stereo) [Example 41, 4-(1-((5-(trifluoromethyl)-6-((cis)-4-(trifluoromethyl)cyclohexyloxy)naphthalen-2-yl)methylamino)ethyl)cyclohexanecarboxylic acid] and `O=C(O)CC1CCCCN1Cc1ccc2c(C(F)(F)F)c(O[C@H]3CC[C@@H](C(F)(F)F)CC3)ccc2c1` (relative stereo) [Example 27, 2-(1-((5-(trifluoromethyl)-6-((cis)-4-(trifluoromethyl)cyclohexyloxy)naphthalen-2-yl)methyl)piperidin-2-yl)acetic acid] cannot be ordered by IC50: no more than 500 nM for the first, no more than 250 nM for the second.

`O=C(O)c1ccc(CNCc2ccc3c(C(F)(F)F)c(O[C@H]4CC[C@@H](C(F)(F)F)CC4)ccc3c2)cn1` [Example 75, 5-((((5-(trifluoromethyl)-6-((cis-4-(trifluoromethyl)cyclohexyl)oxy)-naphthalen-2-yl)methyl)amino)methyl)pyridine-2-carboxylic acid] and `O=C(O)C[C@H]1CCCN(Cc2ccc3c(C(F)(F)F)c(O[C@H]4CC[C@@H](C(F)(F)F)CC4)ccc3n2)C1` [Example 14, 2-((R)-1-(((5-(trifluoromethyl)-6-(cis-4-(trifluoromethyl)cyclohexyl)oxy)quinolin-2-yl)methyl)piperidin-3-yl)acetic acid] cannot be ordered by IC50: no more than 250 nM for the first, no more than 250 nM for the second.

`O=C(NCCCP(=O)(O)O)c1ccc2c(C(F)(F)F)c(OCc3cc(Cl)cc(Cl)c3)ccc2c1` [Example 18, (3-(6-((3,5-dichlorobenzyl)oxy)-5-(trifluoromethyl)-2-naphthamido)propyl)phosphonic acid] and `O=C(O)C1CCN(Cc2ccc3c(C(F)(F)F)c(N[C@H]4CC[C@@H](C(F)(F)F)CC4)ccc3c2)CC1` [Example 22, 1-((5-(trifluoromethyl)-6-((cis-4-(trifluoromethyl)cyclohexyl)amino)naphthalen-2-yl)methyl)piperidine-4-carboxylic acid] cannot be ordered by IC50: no more than 100 nM for the first, no more than 250 nM for the second.
